Reference: patent publication US6737383B1, “Herbicidal oxadiazolidines” (priority 1999, dated 2004)

Key:
dallisgrass = assay: Test D dallisgrass; format: in vivo, Paspalum dilatatum; conditions: Preemergence, 0 to 100 scale
Method in brief: (§1)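 Visual injury ratings, 0 = no injury to 100 = complete control, taken 14 to 21 days after treatment. Test chemicals were in a surfactant-containing non-phytotoxic solvent; preemergence treatments went onto the sandy loam surface of seeded greenhouse pots within one day of sowing.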

Alexandergrass = assay: Test D Alexandergrass; format: in vivo, Brachiaria plantaginea; conditions: Preemergence, 0 to 100 scale
Method in brief: as §1

common ragweed = assay: Test D common ragweed; format: in vivo, Ambrosia elatior; conditions: Preemergence, 0 to 100 scale
Method in brief: as §1

Spanishneedles = assay: Test D Spanishneedles; format: in vivo, Bidens bipinnata; conditions: Preemergence, 0 to 100 scale, 0 no injury, 100 complete control
Method in brief: as §1

sandbur = assay: Test D sandbur; format: in vivo, Cenchrus echinatus; conditions: Preemergence, 0 to 100 scale
Method in brief: as §1

itchgrass = assay: Test D itchgrass; format: in vivo, Rottboellia exaltata; conditions: Preemergence, 0 to 100 scale
Method in brief: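 Scoring used a 0–100 visual injury scale, with 0 meaning no effect and 100 complete control, assessed 14–21 days after application alongside untreated pots. Preemergence treatments went onto sandy loam surfaces of separately potted seeds within a day of sowing.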

guineagrass = assay: Test D guineagrass; format: in vivo, Panicum maximum; conditions: Preemergence, 0 to 100 scale
Method in brief: as §1

Green foxtail = assay: Test D green foxtail; format: in vivo; conditions: Rate 32 g/ha; Preemergence; 0 to 100 scale, 0 no injury, 100 complete control
Method in brief: as §1

sourgrass = assay: Test D sourgrass; format: in vivo, Trichachne insularis; conditions: Preemergence, 0 to 100 scale
Excerpt: Seeds, tubers, or plant parts of Alexandergrass (Brachiaria plantaginea), bermuda-grass (Cynodon dactylon), common pursiane (Portulaca oleracea), common ragweed (Ambrosia elatior), common groundsel (Senecio vulgaris), dallisgrass (Paspalum dilatatum), goosegrass (Eleusine indica), guineagrass (Panicum maximum), itchgrass (Rottboellia exaltata), Johnson grass (Sorghum halepense), large crabgrass (Digitaria sanguinalis), pitted morningglory (Ipomoea lacunosa), purple nutsedge (Cyperus rotundus), sandbur (Cenchrus echinatus), sourgrass (Trichachne insularis), Spanishneedles (Bidens bipinnata), surinam grass (Brachiaria decumbens) and tall mallow (Malva sylvestris) were planted into greenhouse pots of flats containing greenhouse planting medium. Plant species were grown in separate pots or individual compartments. Preemergence applications were made within one day of planting the seed or plant part.
Test chemicals were formulated in a non-phytotoxic solvent mixture which included a surfactant and applied preemergence to the surface of the pot containing seeds in a sandy loam soil. Untreated control pots and treated pots were placed in the greenhouse for growth and visually evaluated for injury 14 to 21 days after herbicide application. Plant response ratings, summarized in Table C, are based on a 0 to 100 scale where 0 is no injury and 100 is complete control. A dash (−) response means no test result.

common pursiane = assay: Test D common purslane; format: in vivo, Portulaca oleracea; conditions: Preemergence, 0 to 100 scale
Method in brief: as §1

Johnson grass = assay: Test D Johnson grass; format: in vivo, Sorghum halepense; conditions: Preemergence, 0 to 100 scale
Method in brief: as §1

large crabgrass = assay: Test D large crabgrass; format: in vivo, Digitaria sanguinalis; conditions: Preemergence, 0 to 100 scale
Method in brief: as §1

tall mallow = assay: Test D tall mallow; format: in vivo, Malva sylvestris; conditions: Preemergence, 0 to 100 scale
Method in brief: as §1

[1] = Rate 32 g/ha, 0 no injury, 100 complete control
[2] = Rate 64 g/ha, 0 no injury, 100 complete control
[3] = Rate 125 g/ha, 0 no injury, 100 complete control

CCc1ccccc1-n1c(=O)on(C(=O)N(c2ccc(F)cc2)C(C)C)c1=O [Compound 34]
Plant response rating, Dallisgrass (dallisgrass; [1]): 0
Plant response rating, Dallisgrass (dallisgrass; [2]): 80
Plant response rating, Dallisgrass (dallisgrass; [3]): 98
Plant response rating, Dallisgrass (dallisgrass; Rate 250 g/ha): 100
Plant response rating, Alexandergrass (Alexandergrass; [1]): 0
Plant response rating, Alexandergrass (Alexandergrass; [2]): 20
Plant response rating, Alexandergrass (Alexandergrass; [3]): 30
Plant response rating, Alexandergrass (Alexandergrass; Rate 250 g/ha): 60
Plant response rating, C. ragweed (common ragweed; [1]): 0
Plant response rating, C. ragweed (common ragweed; [2]): 0
Plant response rating, C. ragweed (common ragweed; [3]): 0
Plant response rating, C. ragweed (common ragweed; Rate 250 g/ha): 0
Plant response rating, Spanishneedles (Spanishneedles; Rate 32 g/ha): 0
Spanishneedles plant response rating (Spanishneedles; Rate 64 g/ha): 0
Spanishneedles plant response rating (Spanishneedles; Rate 125 g/ha): 0
Plant response rating, Sandbur (sandbur; [1]): 0
Sandbur plant response rating (sandbur; [2]): 0
Sandbur plant response rating (sandbur; [3]): 30
Plant response rating, Sandbur (sandbur; Rate 250 g/ha): 40
Plant response rating, Itchgrass (itchgrass; [1]): 0
Plant response rating, Itchgrass (itchgrass; [2]): 0
Plant response rating, Itchgrass (itchgrass; [3]): 0
Plant response rating, Itchgrass (itchgrass; Rate 250 g/ha): 20
Plant response rating, Guineagrass (guineagrass; [1]): 30
Plant response rating, Guineagrass (guineagrass; [2]): 80
Plant response rating, Guineagrass (guineagrass; [3]): 85
Plant response rating, Guineagrass (guineagrass; Rate 250 g/ha): 98
Plant response rating, Green foxtail (Green foxtail): 0
Plant response rating, Sourgrass (sourgrass; [1]): 98
Sourgrass plant response rating (sourgrass; [2]): 100
Sourgrass plant response rating (sourgrass; [3]): 100
Plant response rating, Sourgrass (sourgrass; Rate 250 g/ha): 100
Plant response rating, C. purslane (common pursiane; [1]): 0
Plant response rating, C. purslane (common pursiane; [3]): 0
Plant response rating, C. purslane (common pursiane; Rate 250 g/ha): 0
Plant response rating Johnsongrass (Johnson grass; [1]): 0
Plant response rating Johnsongrass (Johnson grass; [2]): 0
Plant response rating Johnsongrass (Johnson grass; [3]): 20
Plant response rating Johnsongrass (Johnson grass; Rate 250 g/ha): 30
Plant response rating Large crabgrass (large crabgrass; [1]): 85
Plant response rating Large crabgrass (large crabgrass; [2]): 98
Plant response rating Large crabgrass (large crabgrass; [3]): 100
Plant response rating Large crabgrass (large crabgrass; Rate 250 g/ha): 100
Plant response rating, Tall Mallow (tall mallow; [1]): 0
Tall Mallow plant response rating (tall mallow; [2]): 0
Tall Mallow plant response rating (tall mallow; [3]): 0
Plant response rating, Tall Mallow (tall mallow; Rate 250 g/ha): 0
